Data on 18 molecules can be found in patent US7163928B2 (CV Therapeutics, Inc., priority 2003, dated 2007).

Where “and” joins values, the source holds several entries; their conditions need not be identical. Equal entries are not always repeated.

One series deals with T1, A1 adenosine receptor (Mesocricetus auratus, UniProt A0A1U8BVR4).
T1 construct: A1 adenosine receptor sites on the membranes of DDT cells; endogenous in cells; host or cells: DDT1 cells (hamster vas deferens smooth muscle cell line), membrane preparation
T1 sequence (A0A1U8BVR4 1-326): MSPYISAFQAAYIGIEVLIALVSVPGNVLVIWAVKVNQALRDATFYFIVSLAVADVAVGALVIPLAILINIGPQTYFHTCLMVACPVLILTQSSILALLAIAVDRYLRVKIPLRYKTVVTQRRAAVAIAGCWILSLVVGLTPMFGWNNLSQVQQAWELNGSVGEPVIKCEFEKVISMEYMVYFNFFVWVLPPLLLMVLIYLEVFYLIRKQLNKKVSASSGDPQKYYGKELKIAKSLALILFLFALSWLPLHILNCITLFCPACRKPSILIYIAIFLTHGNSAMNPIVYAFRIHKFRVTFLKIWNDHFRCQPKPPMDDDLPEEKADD
Briefly: Competitive binding assay, DDT cell membranes, 3H-CPX. Details: species or system hamster. As to conditions: 1.5 nM 3H-CPX, 10 μM GTP-γS, 23° C. 90 minutes, read-out: Ki (low). The procedure: DDT cells (hamster vas deferens smooth muscle cell line) were grown as monolayers in petri dishes using Dulbecco's Modified Eagle's Medium (DMEM) containing 2.5 μg mL^−1 amphotericin B, 100 U mL^−1 penicillin G, 0.1 mg mL^−1 streptomycin sulfate and 5% fetal bovine serum in a humidified atmosphere of 95% air and 5% CO2. Cells were subcultured twice weekly by dispersion in Hank's Balanced Salt Solution (HBSS) without the divalent cations and containing 1 mM EDTA. The cells were then seeded in growth medium at a density of 1.2×10^5 cells per plate and experiments were performed 4 days later at approximately one day preconfluence.
Attached cells were washed twice with HBSS (2×10 mL), scraped free of the plate with the aid of a rubber policeman in 5 mL of 50 mM Tris-HCl buffer pH 7.4 at 4° C. and the suspension homogenized for 10 s. The suspension was then centrifuged at 27,000×g for 10 min. The pellet was resuspended in homogenization buffer by vortexing and centrifuged as described above. The final pellet was resuspended in 1 vol of 50 mM Tris-HCl buffer pH 7.4 containing 5 mM MgCl2 for A1 adenosine receptor assays. For the [^35S]GTPγS binding assay the final pellet was resuspended in 50 mM Tris-HCl pH 7.4 containing 5 mM MgCl2, 100 mM NaCl and 1 mM dithiothreitol. This membrane suspension was then placed in liquid nitrogen for 10 min, thawed and used for assays. The protein content was determined with a Bradford™ Assay Kit using bovine serum albumin as standard.
Compounds of Formula I were assayed to determine their affinity for the A1 adenosine receptor sites on the membranes of DDT cells. Briefly, 50–70 ug of membrane protein were incubated in a mixture containing 2 U/ml adenosine deaminase, 10 μM GTP-γS in 5 mM HE buffer containing 5 mM MgCl2 in glass tubes Stock solutions of the compounds of the invention were serially diluted (10^−10M to 10^−4M) in HE buffer or HE buffer alone (to determine total binding) and added to the incubation mixture. Finally, tritiated […] (^3H-CPX) was added to a final concentration of 1.5 nM. After incubation at 23° C. 90 minutes, the reaction was stopped by filtration on a Brandel MR24 cell harvester and washing with ice-cold Tris-EDTA buffer (three times, approximate volume 10 ml/wash) over Whatman GF/B filters (presoaked for 1 h in 0.3% polyethylenimine to reduce non-specific binding). Filters were transferred to scintillation vials and 5 ml of Scintisafe (VWR, Brisbane, Calif.) was added. The amount of radioactivity retained on the filters was determined by liquid scintillation spectrometry. Protein determinations were by the method of Bradford (1976. Anal. Biochem. 72:248) using bovine serum albumin as the standard.

The conditions of series [1]: cited from earlier work.

For orientation: Ki means the dissociation constant of the complex between target and ligand, obtained from inhibition or displacement. Consider “(3R)-3-({9-[(5S,2R,3R)-3-hydroxy-5-(hydroxymethyl)oxolan-2-yl]purin-6-yl}amino)pyrrolidinyl 4-methoxyphenyl ketone [CVT 4609]”, for which the inhibition constant Ki on A1 adenosine receptor was > 5 µM.
Turning to `Nc1ncnc2c1ncn2[C@@H]1O[C@H](CO)[C@@H](O)[C@H]1O` [adenosine, Adenosine], the half-life result in series [1] was “less than 10 sec”.
On to `OC[C@@H]1C[C@@H](O)[C@H](n2cnc3c(N[C@@H]4CCCC4O)nc(Cl)nc32)O1` (stereo partly drawn) [CVT 4626, 2-{6-[((1R)-2-hydroxycyclopentyl)amino]-2-chloropurin-9-yl}(5S,2R,3R)-5-(hydroxymethyl)oxolan-3-ol], for which, at A1 adenosine receptor, the Ki was 4.01 µM and 3.5 µM.
As to “4-{[(3R)-3-({9-[(5S,2R,3R)-3-hydroxy-5-(hydroxymethyl)oxolan-2-yl]purin-6-yl}amino)pyrrolidinyl]carbonyl}benzenecarbonitrile [CVT 4608]”, the Ki on A1 adenosine receptor is > 5 µM.
Consider `OC[C@@H]1C[C@@H](O)[C@H](n2cnc3c(N[C@@H]4CCOC4)ncnc32)O1` [CVT 3454, 2-{6-[((3R)oxolan-3-yl)amino]purin-9-yl}(5S,2R,3R)-5-(hydroxymethyl)oxolan-3-ol], for which the Ki on A1 adenosine receptor was found to be 1 µM.
As for “(3R)-3-({9-[(5S,2R,3R)-3-hydroxy-5-(hydroxymethyl)oxolan-2-yl]purin-6-yl}amino)pyrrolidinyl 2-fluorophenyl ketone [CVT 4606]”, the Ki at A1 adenosine receptor turned out to be 2.84 µM.
On the same count and under the same terms, next, “(3R)-3-({9-[(5S,2R,3R)-3-hydroxy-5-(hydroxymethyl)oxolan-2-yl]purin-6-yl}amino)pyrrolidinyl 4-ethylphenyl ketone [CVT 4611]”: > 5 µM.
The same measure, in the same setting: next, `OC[C@@H]1C[C@@H](O)[C@H](n2cnc3c(N[C@H]4CCC[C@@H]4O)ncnc32)O1` [CVT 4625, (5S,2R,3R)-2-{6-[((1S,2S)-2-hydroxycyclopentyl)amino]purin-9-yl}-5-(hydroxymethyl)oxolan-3-ol]: 4.09 µM and 3.69 µM.
As to `OC[C@@H]1C[C@@H](O)[C@H](n2cnc3c(N[C@H]4CC[C@H](O)CC4)ncnc32)O1`, at A1 adenosine receptor, the Ki is > 5 µM.
For the molecule “(3R)-3-({9-[(5S,2R,3R)-3-hydroxy-5-(hydroxymethyl)oxolan-2-yl]purin-6-yl}amino)pyrrolidinyl naphthyl ketone [CVT 4627]”, the Ki at A1 adenosine receptor was 1.91 µM and 2.56 µM.
Consider `CC(=O)N1CC[C@@H](Nc2ncnc3c2ncn3[C@@H]2O[C@H](CO)C[C@H]2O)C1` [CVT 4617, (3R)-3-({9-[(5S,2R,3R)-3-hydroxy-5-(hydroxymethyl)oxolan-2-yl]purin-6-yl}amino)-1-acetylpyrrolidine], for which the Ki at A1 adenosine receptor is > 5 µM.
As to “(3R)-3-({9-[(5S,2R,3R)-3-hydroxy-5-(hydroxymethyl)oxolan-2-yl]purin-6-yl}amino)pyrrolidinyl 3-fluorophenyl ketone [CVT 4613]”, the inhibition constant (Ki) at A1 adenosine receptor is > 5 µM.
The same measure, in the same setting: next, “1-[(3R)-3-({9-[(5S,2R,3R)-3-hydroxy-5-(hydroxymethyl)oxolan-2-yl]purin-6-yl}amino)pyrrolidinyl]-2-methylpropan-1-one [CVT 4614]”: > 5 µM; `O=S(=O)(c1ccccc1)N1CC[C@@H](Nc2ncnc3c2ncn3[C@@H]2O[C@H](CO)C[C@H]2O)C1` [CVT 4629, (3R)-3-({9-[(5S,2R,3R)-3-hydroxy-5-(hydroxymethyl)oxolan-2-yl]purin-6-yl}amino)-1-(phenylsulfonyl)pyrrolidine]: > 5 µM; `OC[C@@H]1C[C@@H](O)[C@H](n2cnc3c(N[C@@H]4CCCCC4O)ncnc32)O1` (stereo partly drawn) [CVT 4622, 2-{6-[((1R)-2-hydroxycyclohexyl)amino]purin-9-yl}(5S,2R,3R)-5-(hydroxymethyl)oxolan-3-ol]: 4.44 µM and 2.94 µM.
In the case of “(3R)-3-({9-[(5S,2R,3R)-3-hydroxy-5-(hydroxymethyl)oxolan-2-yl]purin-6-yl}amino)pyrrolidinyl 4-fluorophenyl ketone [CVT 4607]”, the Ki at A1 adenosine receptor was > 5 µM.
In the case of “(3R)-3-({9-[(5S,2R,3R)-3-hydroxy-5-(hydroxymethyl)oxolan-2-yl]purin-6-yl}amino)pyrrolidinyl 2-naphthyl ketone [CVT 4612]”, the Ki at A1 adenosine receptor is > 5 µM.
In the case of “(3R)-3-({9-[(5S,2R,3R)-3-hydroxy-5-(hydroxymethyl)oxolan-2-yl]purin-6-yl}amino)pyrrolidinyl 4-(trifluoromethyl)phenyl ketone [CVT 4610]”, the Ki on A1 adenosine receptor is > 5 µM.
